Assay results: the supplement of paper PMC10307832

How the values were obtained:
Experiment in all cases: relative viability (nuclei count vs DMSO), 5 days (fraction); higher = more cells survive
[1] = system: NCI-H358
How it was run: (§1)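 Medians of duplicate plates are given as relative viability. That measure is the nuclei count in treated wells divided by the count in vehicle wells. Counts were taken on 4× images of lung cancer cell lines in 1536-well plates, 5 days after pin-tool dosing the day after seeding with one drug alone or a fixed anchor-drug dose plus five library-drug doses (not always all listed) in √10 steps.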

[2] = system: LOU-NH91
How it was run: as §1

[3] = system: EKVX
How it was run: as §1

[4] = system: NCI-H838
How it was run: as §1

[5] = system: NCI-H1395
How it was run: as §1

[6] = system: NCI-H2085
How it was run: as §1

[7] = system: HCC-44
How it was run: as §1

[8] = system: NCI-H1734
How it was run: as §1

[9] = system: NCI-H1975
How it was run: as §1

[10] = system: BEN
How it was run: as §1

[11] = system: NCI-H1355
How it was run: as §1

[12] = system: CAL-12T
How it was run: as §1

[13] = system: LU99A
How it was run: as §1

[14] = system: NCI-H2023
How it was run: as §1

[15] = system: NCI-H1437
How it was run: as §1

[16] = system: NCI-H1651
How it was run: as §1

[17] = system: NCI-H441
How it was run: as §1

[18] = system: NCI-H1563
How it was run: as §1

[19] = system: NCI-H460
How it was run: as §1

[20] = system: HCC-366
How it was run: as §1

[21] = system: NCI-H1755
How it was run: as §1

## C=C1C(=O)O[C@@H](CCCCCCCC)[C@@H]1C(=O)O [C-75] + C[C@]1(O)C[C@@H](c2nc(-c3ccc4ccc(-c5ccccc5)nc4c3)c3c(N)nccn32)C1 [Linsitinib] (partner 1 µM)
[1]; first compound 0.08 µM
  relative viability: 0.734
[1]; first compound 0.253 µM
  relative viability: 0.823
[1]; first compound 0.8 µM
  relative viability: 0.7
[1]; first compound 2.53 µM
  relative viability: 0.602
[1]; first compound 8 µM
  relative viability: 0.737
[2]; first compound 0.08 µM
  relative viability: 1
[2]; first compound 0.253 µM
  relative viability: 0.82
[2]; first compound 0.8 µM
  relative viability: 0.875
[2]; first compound 2.53 µM
  relative viability: 0.859
[2]; first compound 8 µM
  relative viability: 1.02
[3]; first compound 0.08 µM
  relative viability: 1.01
[3]; first compound 0.253 µM
  relative viability: 1.05
[3]; first compound 0.8 µM
  relative viability: 0.906
[3]; first compound 2.53 µM
  relative viability: 0.96
[3]; first compound 8 µM
  relative viability: 0.908
[4]; first compound 0.08 µM
  relative viability: 0.935
[4]; first compound 0.253 µM
  relative viability: 0.706
[4]; first compound 0.8 µM
  relative viability: 1.01
[4]; first compound 2.53 µM
  relative viability: 0.943
[4]; first compound 8 µM
  relative viability: 0.836
[5]; first compound 0.08 µM
  relative viability: 1.11
[5]; first compound 0.253 µM
  relative viability: 1.05
[5]; first compound 0.8 µM
  relative viability: 1.12
[5]; first compound 2.53 µM
  relative viability: 1.11
[5]; first compound 8 µM
  relative viability: 1.25
[6]; first compound 0.08 µM
  relative viability: 0.935
[6]; first compound 0.253 µM
  relative viability: 0.801
[6]; first compound 0.8 µM
  relative viability: 0.88
[6]; first compound 2.53 µM
  relative viability: 0.806
[6]; first compound 8 µM
  relative viability: 0.792
[7]; first compound 0.08 µM
  relative viability: 0.598
[7]; first compound 0.253 µM
  relative viability: 0.633
[7]; first compound 0.8 µM
  relative viability: 0.618
[7]; first compound 2.53 µM
  relative viability: 0.453
[7]; first compound 8 µM
  relative viability: 0.667
[8]; first compound 0.08 µM
  relative viability: 0.876
[8]; first compound 0.253 µM
  relative viability: 0.813
[8]; first compound 0.8 µM
  relative viability: 0.804
[8]; first compound 2.53 µM
  relative viability: 0.622
[8]; first compound 8 µM
  relative viability: 0.732
[9]; first compound 0.08 µM
  relative viability: 0.958
[9]; first compound 0.253 µM
  relative viability: 1.02
[9]; first compound 0.8 µM
  relative viability: 0.945
[9]; first compound 2.53 µM
  relative viability: 0.897
[9]; first compound 8 µM
  relative viability: 0.898
[10]; first compound 0.08 µM
  relative viability: 0.847
[10]; first compound 0.253 µM
  relative viability: 0.982
[10]; first compound 0.8 µM
  relative viability: 0.937
[10]; first compound 2.53 µM
  relative viability: 0.873
[10]; first compound 8 µM
  relative viability: 0.854
[11]; first compound 0.08 µM
  relative viability: 0.849
[11]; first compound 0.253 µM
  relative viability: 0.803
[11]; first compound 0.8 µM
  relative viability: 0.806
[11]; first compound 2.53 µM
  relative viability: 0.805
[11]; first compound 8 µM
  relative viability: 0.825
[12]; first compound 0.08 µM
  relative viability: 0.814
[12]; first compound 0.253 µM
  relative viability: 1.02
[12]; first compound 0.8 µM
  relative viability: 0.751
[12]; first compound 2.53 µM
  relative viability: 0.701
[12]; first compound 8 µM
  relative viability: 0.792
[13]; first compound 0.08 µM
  relative viability: 0.571
[13]; first compound 0.253 µM
  relative viability: 0.598
[13]; first compound 0.8 µM
  relative viability: 0.528
[13]; first compound 2.53 µM
  relative viability: 0.412
[13]; first compound 8 µM
  relative viability: 0.464
[14]; first compound 0.08 µM
  relative viability: 0.701
[14]; first compound 0.253 µM
  relative viability: 0.824
[14]; first compound 0.8 µM
  relative viability: 0.473
[14]; first compound 2.53 µM
  relative viability: 0.658
[14]; first compound 8 µM
  relative viability: 0.753
[15]; first compound 0.08 µM
  relative viability: 1.03
[15]; first compound 0.253 µM
  relative viability: 1
[15]; first compound 0.8 µM
  relative viability: 1.04
[15]; first compound 2.53 µM
  relative viability: 1.01
[15]; first compound 8 µM
  relative viability: 1.04
[16]; first compound 0.08 µM
  relative viability: 1.06
[16]; first compound 0.253 µM
  relative viability: 1.07
[16]; first compound 0.8 µM
  relative viability: 1.08
[16]; first compound 2.53 µM
  relative viability: 0.975
[16]; first compound 8 µM
  relative viability: 0.964
[17]; first compound 0.08 µM
  relative viability: 0.476
[17]; first compound 0.253 µM
  relative viability: 0.592
[17]; first compound 0.8 µM
  relative viability: 0.373
[17]; first compound 2.53 µM
  relative viability: 0.48
[17]; first compound 8 µM
  relative viability: 0.442
[18]; first compound 0.08 µM
  relative viability: 1.24
[18]; first compound 0.253 µM
  relative viability: 1.23
[18]; first compound 0.8 µM
  relative viability: 1.14
[18]; first compound 2.53 µM
  relative viability: 1.28
[18]; first compound 8 µM
  relative viability: 1.18
[19]; first compound 0.08 µM
  relative viability: 0.718
[19]; first compound 0.253 µM
  relative viability: 0.823
[19]; first compound 0.8 µM
  relative viability: 0.72
[19]; first compound 8 µM
  relative viability: 0.582
[20]; first compound 0.08 µM
  relative viability: 0.629
[20]; first compound 0.253 µM
  relative viability: 0.645
[20]; first compound 0.8 µM
  relative viability: 0.558
[20]; first compound 8 µM
  relative viability: 0.258
[21]; first compound 0.08 µM
  relative viability: 0.946
[21]; first compound 0.253 µM
  relative viability: 0.887
[21]; first compound 0.8 µM
  relative viability: 0.98
[21]; first compound 2.53 µM
  relative viability: 0.775
[21]; first compound 8 µM
  relative viability: 1.01
